The target in this assay is T1, Autotaxin (Homo sapiens, UniProt Q13822).
T1 construct: purchased X-Chem
The assay is described as follows: Autotaxin LPC Cascade Assay. The class given is biochemical. Particulars: 5 nM autotaxin, 100 μM LPC, choline oxidase/HRP/Ampliflu Red fluorescence readout; read-out: IC50 ATX activity values, IC50. As for the experimental part:
Autotaxin LPC Cascade Assay
HA130 and Test Compounds:
Highest final concentration is […] for HA130 (Echelon, B-0701) and 30 μM for test compounds. Prepare a 1 mM stock of HA130 and a 3 mM stock of each compound in 100% DMSO. Perform a 1:3 serial dilution in DMSO (transfer 5 μl of compound to 10 μl of DMSO). Add 240 μl of buffer to generate a top working concentration of 40 µM (HA130) and 120 µM (test compound) in 4% DMSO.
Ampliflu Red—Prepare a stock of 5 mM from 100 mM in 100% DMSO. Further dilute to a working concentration of 400 μM in buffer (8% DMSO).
Together with compound this yields a 2% DMSO final concentration.
Choline Oxidase/HRP—0.8 U/ml CO and 8 U/ml HRP.
Add 5 μl of ATX and 5 μl of compound in a 384 well plate (Corning 3676). Incubate for 10 mins at RT. Add 5 μl of LPC and incubate for 1 hr on the plate shaker. Prepare the CO/HRP and AR prior to use. Add 2.5 μl of CO/HRP and follow with 2.5 μl AR. Note order of addition, CO/HRP mix before AR. Read fluorescence intensity (λex/λem: 530/590 nm) kinetically for 30 min at RT on the Tecan M1000.
Take `CCc1cc(C(=O)N[C@@H](C(=O)N2CCC(C)(Nc3ccc(S(C)(=O)=O)cc3)CC2)C(C)C)c(F)cc1C` [Example 34, (R)-5-Ethyl-2-fluoro-4-methyl-N-(3-methyl-1-(4-methyl-4-(4-(methylsulfonyl)phenylamino)piperidin-1-yl)-1-oxobutan-2-yl)benzamide]: the IC50 lay within 100 to 500 nM.
With `CCc1ccc(F)c(C(=O)N[C@@H](C(=O)N2CCC(C)(CNc3ccc(S(C)(=O)=O)cc3)CC2)C(C)C)c1` [Example 35, (R)-5-Ethyl-2-fluoro-N-(3-methyl-1-(4-methyl-4-((4-(methylsulfonyl)phenylamino)methyl)piperidin-1-yl)-1-oxobutan-2-yl)benzamide] the figure was 100 to 500 nM; with `CC(C)c1ccc(F)c(C(=O)N[C@@H](C(=O)N2CCC(C)(Nc3ccc(S(C)(=O)=O)cc3)CC2)C(C)C)c1` [Example 36, (R)-2-Fluoro-5-isopropyl-N-(3-methyl-1-(4-methyl-4-(4-(methylsulfonyl)phenylamino)piperidin-1-yl)-1-oxobutan-2-yl)benzamide], 10 to 100 nM.
With `CC(C)[C@@H](NC(=O)c1cc(OC(F)(F)F)ccc1F)C(=O)N1CCC(C)(NC(=O)c2ccc(S(C)(=O)=O)cc2)CC1` [Example 37, (R)-2-Fluoro-N-(3-methyl-1-(4-methyl-4-(4-(methylsulfonyl)benzamido)piperidin-1-yl)-1-oxobutan-2-yl)-5-(trifluoromethoxy)benzamide] the figure was 500 to 5000 nM; with `CC(C)[C@@H](NC(=O)c1cccc(OC(F)(F)F)c1)C(=O)N1CCC(C)(NC(=O)c2ccc(S(C)(=O)=O)cc2)CC1` [Example 38, (R)—N-(3-Methyl-1-(4-methyl-4-(4-(methylsulfonyl)benzamido)piperidin-1-yl)-1-oxobutan-2-yl)-3-(trifluoromethoxy)benzamide], 500 to 5000 nM.
`CC(C)[C@@H](NC(=O)c1cc(OC(F)(F)F)ccc1F)C(=O)N1CCC(C)(NCc2ccc(S(C)(=O)=O)cc2)CC1` [Example 39, (R)-2-Fluoro-N-(3-methyl-1-(4-methyl-4-((4-(methylsulfonyl)benzyl)amino)piperidin-1-yl)-1-oxobutan-2-yl)-5-(trifluoromethoxy)benzamide]: the IC50 was in the range of 10 to 100 nM.
For the compound `COc1ccc(CNC2(C)CCN(C(=O)[C@H](NC(=O)c3cc(OC(F)(F)F)ccc3F)C(C)C)CC2)cc1` [Example 40, (R)-2-Fluoro-N-(1-(4-((4-methoxybenzyl)amino)-4-methylpiperidin-1-yl)-3-methyl-1-oxobutan-2-yl)-5-(trifluoromethoxy)benzamide], the IC50 was in the range of 100 to 500 nM.
For `CC(C)[C@@H](NC(=O)c1cccc(OC(F)(F)F)c1)C(=O)N1CCC(C)(NCc2ccc(S(C)(=O)=O)cc2)CC1` [Example 41, (R)—N-(3-Methyl-1-(4-methyl-4-((4-(methylsulfonyl)benzyl)amino)piperidin-1-yl)-1-oxobutan-2-yl)-3-(trifluoromethoxy)benzamide], the IC50 was 100 to 500 nM.
Consider `CC(C)[C@H](NC(=O)c1cccc(OC(F)(F)F)c1)C(=O)N1CCC(C)(NCc2ccc(S(C)(=O)=O)cc2)CC1` [Example 42, (S)—N-(3-Methyl-1-(4-methyl-4-((4-(methylsulfonyl)benzyl)amino)piperidin-1-yl)-1-oxobutan-2-yl)-3-(trifluoromethoxy)benzamide], for which the IC50 was 500 to 5000 nM.
For the compound `COc1ccc(CNC2(C)CCN(C(=O)[C@H](NC(=O)c3cccc(OC(F)(F)F)c3)C(C)C)CC2)cc1` [Example 43, (R)—N-(1-(4-((4-Methoxybenzyl)amino)-4-methylpiperidin-1-yl)-3-methyl-1-oxobutan-2-yl)-3-(trifluoromethoxy)benzamide], the IC50 lay within 500 to 5000 nM.

What is called IC50 is the point on the concentration scale where inhibition reaches its midpoint.
